Earlier results in patent publication US6586417B1, “Ester and ether derivatives of 4-hydroxy 4-androstene-3,17-dione and a method for the regulation of athletic function in humans” (NutriSport Pharmacal, Inc., priority 2002, dated 2003).

Tests used:
[1] = test system: rats; settings: for weight of the genital organs (testis, ventral prostrate, seminal vesicle) / luteinizing hormone (LH) levels: rats, subcutaneous treatment; for luteinizing hormone (LH) levels: 4-acetoxy-4-androstenedione given against effects of 19-hydroxytestosterone
[2] = test system: rat follicles; settings: rat follicles in vitro
[3] = test system: transformation of testosterone to dihydrotestosterone in the ventral prostrate; settings: ventral prostrate of the adult male rat
[4] = test system: estrogen
[5] = molecular target: T1, aromatase enzyme (Homo sapiens, UniProt P11511); settings: at 24 and 48 weeks
T1 construct: host or cells: endogenous enzyme in treated males (in vivo)
T1 sequence (P11511 1-503): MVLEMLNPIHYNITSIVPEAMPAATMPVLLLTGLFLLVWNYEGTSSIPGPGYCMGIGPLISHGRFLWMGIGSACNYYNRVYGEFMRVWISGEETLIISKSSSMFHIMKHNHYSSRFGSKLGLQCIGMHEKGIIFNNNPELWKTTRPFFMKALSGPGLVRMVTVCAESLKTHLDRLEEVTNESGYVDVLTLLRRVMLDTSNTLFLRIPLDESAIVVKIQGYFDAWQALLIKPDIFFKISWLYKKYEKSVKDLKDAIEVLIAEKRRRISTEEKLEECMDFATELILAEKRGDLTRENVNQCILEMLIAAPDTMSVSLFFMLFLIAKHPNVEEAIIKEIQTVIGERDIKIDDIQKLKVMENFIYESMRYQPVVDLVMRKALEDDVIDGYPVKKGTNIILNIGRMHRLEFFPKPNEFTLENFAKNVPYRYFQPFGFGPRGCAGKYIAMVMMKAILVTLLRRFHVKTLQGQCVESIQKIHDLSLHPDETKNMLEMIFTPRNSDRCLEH

Q: With `CC(=O)OC1=C2CC[C@@H]3[C@H](CC[C@]4(C)C(=O)CC[C@@H]34)[C@@]2(C)CCC1=O` [4-acetoxy-4-androstenedione] as the molecule, how does the meiotic activity ([1]; rats treated with 19-hydroxytestosterone) read?
A: Its meiotic activity is “restored meiotic activity”.

Q: What about the “weight of the genital organs (testis, ventral prostrate, seminal vesicle)” value [1] of the same molecule?
A: Its value is “increased the weight of the genital organs”.

Q: What about the “luteinizing hormone (LH) levels” value [1] of the same molecule?
A: Its value is “increased luteinizing hormone (LH) levels”.

Q: And the “stimulation of testosterone, in combination with luteinizing hormone (LH)” value ([2]; first eight hours, plus LH)?
A: Its value is “greatly stimulate testosterone”.

Q: And the “stimulation of testosterone, compound alone” value ([2]; first eight hours, without LH)?
A: Its value is “directly stimulate testosterone alone”.

Q: What about the “stimulation of testosterone relative to luteinizing hormone (LH)” value ([2]; next sixteen hours, compound alone) of the same molecule?
A: Its value is “three times as much as luteinizing hormone (LH)”.

Q: And the “inhibition of the transformation of testosterone to dihydrotestosterone” value [3]?
A: Its value is “able to inhibit”.

Q: With `C[C@]12CC[C@H]3[C@@H](CCC4=CC(=O)CC[C@@]43CO)[C@@H]1CC[C@@H]2O` [19-hydroxytestosterone, reference compound] as the molecule, how does the “weight of the genital organs (testis, ventral prostrate, seminal vesicle)” value [1] read?
A: Its value is “decrease in weight of the testis, ventral prostrate, seminal vesicle”.

Q: And the “luteinizing hormone (LH) levels” value [1]?
A: The value was “decrease”.

Q: With `C[C@]12CCC(=O)C(O)=C1CC[C@@H]1[C@@H]2CC[C@]2(C)C(=O)CC[C@@H]12` [4-hydroxy 4-androstenedione, 4-hydroxy 4-androstene-3, 17-dione] as the molecule, how does the “inhibition of the transformation of testosterone to dihydrotestosterone” value [3] read?
A: The value was “able to inhibit”.

Q: And the “escape from estrogen suppression” value ([4]; 500 mg p.o. daily versus single i.m. injection of 125 mg)?
A: The value was “more rapid”.

Q: And the oral absorption ([4]; p.o.)?
A: Its oral absorption is “adequate oral absorption”.

Q: For `CC1=CC(=O)C=C2CC[C@@H]3[C@H](CC[C@]4(C)C(=O)CC[C@@H]34)[C@@]12C` [atamestane], which “restoration of androgens over estrogens” value [5] is on record?
A: The value was “restoration of androgens over estrogens”.
